Structures can show the parent of a compound that is named as a salt. Where two headings read alike, the source gives them in different places.
Experiments:
Experiment in all cases: AK assay 384-well format, Prestwick library screening
K. pneumoniae = type: cell-based, Klebsiella pneumoniae; details: 50 μM final drug concentration; for fold induction at 50 µM: Klebsiella pneumoniae, 3 h
P. aeruginosa = type: cell-based, Pseudomonas aeruginosa; details: 50 μM final drug concentration; for fold induction at 50 µM: Pseudomonas aeruginosa, 3 h
[1] = test system: S. aureus strain USA300-0114; type: cell-based, Staphylococcus aureus; details: 50 μM final drug concentration; for fold induction at 50 µM: Staphylococcus aureus, USA300, 3 h
E. faecium = type: cell-based, Enterococcus faecium; details: 50 μM final drug concentration; for fold induction at 50 µM: Enterococcus faecium, 3 h
E. coli = type: cell-based, Escherichia coli; details: 50 μM final drug concentration; for fold induction at 50 µM: Escherichia coli, 3 h
E. cloacae = type: cell-based, Enterobacter cloacae; details: 50 μM final drug concentration; for fold induction at 50 µM: Enterobacter cloacae, 3 h
[2] = test system: A. baumannii strain 98-37-09; type: cell-based, Acinetobacter baumannii; details: 50 μM final drug concentration; for fold induction at 50 µM: Acinetobacter baumannii, 983709, 3 h
[3] = cutoff for positive-scoring molecules 3-fold increase, read-out: AK-based Prestwick Library Screening Results, K. pneumoniae (fold increase in extracellular AK activity)
[4] = cutoff for positive-scoring molecules 3-fold increase, read-out: AK-based Prestwick Library Screening Results, P. aeruginosa (fold increase in extracellular AK activity)
[5] = cutoff for positive-scoring molecules 3-fold increase, read-out: AK-based Prestwick Library Screening Results, S. aureus (fold increase in extracellular AK activity)
[6] = cutoff for positive-scoring molecules 3-fold increase, read-out: AK-based Prestwick Library Screening Results, E. faecium (fold increase in extracellular AK activity)
[7] = cutoff for positive-scoring molecules 3-fold increase, read-out: AK-based Prestwick Library Screening Results, E. coli (fold increase in extracellular AK activity)
[8] = cutoff for positive-scoring molecules 3-fold increase, read-out: AK-based Prestwick Library Screening Results, E. cloacae (fold increase in extracellular AK activity)
[9] = cutoff for positive-scoring molecules 3-fold increase, read-out: AK-based Prestwick Library Screening Results, A. baumannii (fold increase in extracellular AK activity)

In the case of `CC(=O)OCC1=C(C(=O)O)N2C(=O)[C@@H](N)[C@H]2SC1` [Cephalosporanic acid, 7-amino], the “AK-based Prestwick Library Screening Results, K. pneumoniae (increase in extracellular AK activity)” value (K. pneumoniae; planktonic K. pneumoniae, […]) was 0.7, the “AK-based Prestwick Library Screening Results, P. aeruginosa (increase in extracellular AK activity)” value (P. aeruginosa; planktonic P. aeruginosa, […]) was 0.8 and the “AK-based Prestwick Library Screening Results, S. aureus (increase in extracellular AK activity)” value ([1]; planktonic S. aureus, […]) was 0.6. For the same molecule, the “AK-based Prestwick Library Screening Results, E. faecium (increase in extracellular AK activity)” value (E. faecium; planktonic E. faecium, […]) was 0.9, the “AK-based Prestwick Library Screening Results, E. coli (increase in extracellular AK activity)” value (E. coli; planktonic E. coli, […]) was 0.9 and the “AK-based Prestwick Library Screening Results, E. cloacae (increase in extracellular AK activity)” value (E. cloacae; planktonic E. cloacae, […]) was 0.8. For the same molecule, the “AK-based Prestwick Library Screening Results, A. baumannii (increase in extracellular AK activity)” value ([2]; planktonic A. baumannii, […]) was 0.8.
For `CC(=O)OCC1=C(C(=O)O)N2C(=O)[C@@H](NC(=O)Cc3cccs3)[C@H]2SC1` [Cephalothin sodium salt], the fold induction at 50 µM (K. pneumoniae; [3]) was 3.2, the fold induction at 50 µM (P. aeruginosa; [4]) was 1.1 and the fold induction at 50 µM [1, 5] was 5.3. The fold induction at 50 µM (E. faecium; [6]) was 1, the fold induction at 50 µM (E. coli; [7]) was 11.8 and the fold induction at 50 µM (E. cloacae; [8]) was 2. The fold induction at 50 µM [2, 9] was 1.1.
`O=C(O)COCCN1CCN(C(c2ccccc2)c2ccc(Cl)cc2)CC1` (centres unmarked) [Cetirizine dihydrochloride] showed a fold induction at 50 µM (K. pneumoniae; planktonic K. pneumoniae, cutoff for positive-scoring molecules 3-fold increase, read-out: AK-based Prestwick Library Screening Results, K. pneumoniae (increase in extracellular AK activity)) of 0.7, a fold induction at 50 µM (P. aeruginosa; planktonic P. aeruginosa, cutoff for positive-scoring molecules 3-fold increase, read-out: AK-based Prestwick Library Screening Results, P. aeruginosa (increase in extracellular AK activity)) of 0.9 and a fold induction at 50 µM ([1]; planktonic S. aureus, cutoff for positive-scoring molecules 3-fold increase, read-out: AK-based Prestwick Library Screening Results, S. aureus (increase in extracellular AK activity)) of 0.7. It also gave a fold induction at 50 µM (E. faecium; planktonic E. faecium, cutoff for positive-scoring molecules 3-fold increase, read-out: AK-based Prestwick Library Screening Results, E. faecium (increase in extracellular AK activity)) of 0.9, a fold induction at 50 µM (E. coli; planktonic E. coli, cutoff for positive-scoring molecules 3-fold increase, read-out: AK-based Prestwick Library Screening Results, E. coli (increase in extracellular AK activity)) of 0.9 and a fold induction at 50 µM (E. cloacae; planktonic E. cloacae, cutoff for positive-scoring molecules 3-fold increase, read-out: AK-based Prestwick Library Screening Results, E. cloacae (increase in extracellular AK activity)) of 0.9. For the same molecule, the fold induction at 50 µM ([2]; planktonic A. baumannii, cutoff for positive-scoring molecules 3-fold increase, read-out: AK-based Prestwick Library Screening Results, A. baumannii (increase in extracellular AK activity)) was 1.1.
With `C[C@H](CCC(=O)O)[C@H]1CC[C@H]2[C@@H]3[C@H](O)C[C@@H]4C[C@H](O)CC[C@]4(C)[C@H]3CC[C@]12C` [Chenodiol] the fold induction at 50 µM (K. pneumoniae; planktonic K. pneumoniae, 384-well, cutoff for positive-scoring molecules 3-fold increase, read-out: AK-based Prestwick Library Screening Results: K. pneumoniae (increase in extracellular AK activity)) was 0.8, the fold induction at 50 µM (P. aeruginosa; planktonic P. aeruginosa, 384-well, cutoff for positive-scoring molecules 3-fold increase, read-out: AK-based Prestwick Library Screening Results: P. aeruginosa (increase in extracellular AK activity)) was 1.2 and the fold induction at 50 µM ([1]; planktonic S. aureus, 384-well, cutoff for positive-scoring molecules 3-fold increase, read-out: AK-based Prestwick Library Screening Results: S. aureus (increase in extracellular AK activity)) was 1.7. The fold induction at 50 µM (E. faecium; planktonic E. faecium, 384-well, cutoff for positive-scoring molecules 3-fold increase, read-out: AK-based Prestwick Library Screening Results: E. faecium (increase in extracellular AK activity)) was 1, the fold induction at 50 µM (E. coli; planktonic E. coli, 384-well, cutoff for positive-scoring molecules 3-fold increase, read-out: AK-based Prestwick Library Screening Results: E. coli (increase in extracellular AK activity)) was 1.2 and the fold induction at 50 µM (E. cloacae; planktonic E. cloacae, 384-well, cutoff for positive-scoring molecules 3-fold increase, read-out: AK-based Prestwick Library Screening Results: E. cloacae (increase in extracellular AK activity)) was 1.5. It also gave a fold induction at 50 µM ([2]; planktonic A. baumannii, 384-well, cutoff for positive-scoring molecules 3-fold increase, read-out: AK-based Prestwick Library Screening Results: A. baumannii (increase in extracellular AK activity)) of 1.
For `COc1cc(-c2ccc(N=Nc3ccc4c(S(=O)(=O)[O-])cc(S(=O)(=O)[O-])c(N)c4c3O)c(OC)c2)ccc1N=Nc1ccc2c(S(=O)(=O)[O-])cc(S(=O)(=O)[O-])c(N)c2c1O.[Na+].[Na+].[Na+].[Na+]` [Chicago sky blue 6B], the “AK-based Prestwick Library Screening Results, K. pneumoniae (increase in extracellular AK activity)” value (K. pneumoniae; planktonic K. pneumoniae, cutoff for positive-scoring molecules 3-fold increase) was 0.3, the “AK-based Prestwick Library Screening Results, P. aeruginosa (increase in extracellular AK activity)” value (P. aeruginosa; planktonic P. aeruginosa, cutoff for positive-scoring molecules 3-fold increase) was 0.4 and the “AK-based Prestwick Library Screening Results, S. aureus (increase in extracellular AK activity)” value ([1]; planktonic S. aureus, cutoff for positive-scoring molecules 3-fold increase) was 0.0. The “AK-based Prestwick Library Screening Results, E. faecium (increase in extracellular AK activity)” value (E. faecium; planktonic E. faecium, cutoff for positive-scoring molecules 3-fold increase) was 0.5, the “AK-based Prestwick Library Screening Results, E. coli (increase in extracellular AK activity)” value (E. coli; planktonic E. coli, cutoff for positive-scoring molecules 3-fold increase) was 0.5 and the “AK-based Prestwick Library Screening Results, E. cloacae (increase in extracellular AK activity)” value (E. cloacae; planktonic E. cloacae, cutoff for positive-scoring molecules 3-fold increase) was 0.9. The “AK-based Prestwick Library Screening Results, A. baumannii (increase in extracellular AK activity)” value ([2]; planktonic A. baumannii, cutoff for positive-scoring molecules 3-fold increase) was 0.4.
Molecule `O=C(O)CCCc1ccc(N(CCCl)CCCl)cc1` [Chlorambucil] has a fold induction at 50 µM (K. pneumoniae; planktonic K. pneumoniae, […], read-out: AK-based Prestwick library screening result, K. pneumoniae (fold increase in extracellular AK activity)) of 0.7, a fold induction at 50 µM (P. aeruginosa; planktonic P. aeruginosa, […], read-out: AK-based Prestwick library screening result, P. aeruginosa (fold increase in extracellular AK activity)) of 0.8 and a fold induction at 50 µM ([1]; planktonic S. aureus, […], read-out: AK-based Prestwick library screening result, S. aureus (fold increase in extracellular AK activity)) of 0.8. It also gave a fold induction at 50 µM (E. faecium; planktonic E. faecium, […], read-out: AK-based Prestwick library screening result, E. faecium (fold increase in extracellular AK activity)) of 0.9, a fold induction at 50 µM (E. coli; planktonic E. coli, […], read-out: AK-based Prestwick library screening result, E. coli (fold increase in extracellular AK activity)) of 0.9 and a fold induction at 50 µM (E. cloacae; planktonic E. cloacae, […], read-out: AK-based Prestwick library screening result, E. cloacae (fold increase in extracellular AK activity)) of 1.2. For the same molecule, the fold induction at 50 µM ([2]; planktonic A. baumannii, […], read-out: AK-based Prestwick library screening result, A. baumannii (fold increase in extracellular AK activity)) was 0.9.
`O=C(N[C@H](CO)[C@H](O)c1ccc([N+](=O)[O-])cc1)C(Cl)Cl` [Chloramphenicol] gave a fold induction at 50 µM (K. pneumoniae; 384-well format, cutoff for positive-scoring molecules 3-fold increase, read-out: AK-based Prestwick Library Screening Results, K. pneumoniae (increase in extracellular AK activity)) of 0.2, a fold induction at 50 µM (P. aeruginosa; 384-well format, cutoff for positive-scoring molecules 3-fold increase, read-out: AK-based Prestwick Library Screening Results, P. aeruginosa (increase in extracellular AK activity)) of 0.8 and a fold induction at 50 µM ([1]; 384-well format, cutoff for positive-scoring molecules 3-fold increase, read-out: AK-based Prestwick Library Screening Results, S. aureus (increase in extracellular AK activity)) of 9.7. The fold induction at 50 µM (E. faecium; 384-well format, cutoff for positive-scoring molecules 3-fold increase, read-out: AK-based Prestwick Library Screening Results, E. faecium (increase in extracellular AK activity)) was 0.8, the fold induction at 50 µM (E. coli; 384-well format, cutoff for positive-scoring molecules 3-fold increase, read-out: AK-based Prestwick Library Screening Results, E. coli (increase in extracellular AK activity)) was 0.7 and the fold induction at 50 µM (E. cloacae; 384-well format, cutoff for positive-scoring molecules 3-fold increase, read-out: AK-based Prestwick Library Screening Results, E. cloacae (increase in extracellular AK activity)) was 1.5. The fold induction at 50 µM ([2]; 384-well format, cutoff for positive-scoring molecules 3-fold increase, read-out: AK-based Prestwick Library Screening Results, A. baumannii (increase in extracellular AK activity)) was 1.
Work on `CN1CCN(C(c2ccccc2)c2ccc(Cl)cc2)CC1` (centres unmarked) [Chlorcyclizine hydrochloride] yielded a fold induction at 50 µM (K. pneumoniae; [3]) of 1.1, a fold induction at 50 µM (P. aeruginosa; [4]) of 1.1 and a fold induction at 50 µM [1, 5] of 1.2. For the same molecule, the fold induction at 50 µM (E. faecium; [6]) was 1, the fold induction at 50 µM (E. coli; [7]) was 1.3 and the fold induction at 50 µM (E. cloacae; [8]) was 1.6. The fold induction at 50 µM [2, 9] was 1.5.
